Assays:
[1] = system: embryonic erythroblast-containing cell population produced from human iPS cells; assay: Compound test using embryonic erythroblast-containing cell population produced from human iPS cells (heme, PPIX by LC-MS, viable cell count, viability); type: cell-based; conditions: DHA 0.5 or 1 μM, SA 10 or 30 μM, Day 18 (Day 8 after start of step (C)); for viable cell count: FIG. 12C; for viability of cells: FIG. 12D
Protocol: The procedure illustrated in FIG. 11 was used to conduct a compound test using an embryonic erythroblast-containing cell population produced from human iPS cells. Differentiation of human iPS cells was induced by substantially the same procedure as in Example 1 to produce an embryonic erythroblast-containing cell population at Day 10 after the start of suspension culture (step (A)) (Step (A) and Step (B)). The cells were centrifuged for 5 min at 1000 rpm in a centrifuge (CF8DL; manufactured by Koki Holdings Co., Ltd.) to remove the supernatant. Next, STEMdiff+B medium was added to the precipitate. Subsequently, the cells were suspended and seeded at 2×10^5 cells in 1.5 mL of medium per well of a […] 6-well plate (manufactured by Corning, Inc.). Then, suspension culture was started (step (C) was started). To the medium at that time was added, as a test compound, dihydroartemisinin (hereinafter, referred to as “DHA”) (at a final concentration of 0.5 μM or 1 μM) or succinylacetone (hereinafter, referred to as “SA”) (at a final concentration of 10 μM or 30 μM). As a solvent control, DMSO was added.
At Day 18 (Day 8 after the start of step (C)) after the start of suspension culture (step (A)), the resulting cell population-containing medium was collected from the 6-well plate. Next, 0.4×10^5 cells to 1×10^5 cells were pipetted into an Eppendorf tube, and centrifuged for 3 min at 7500 rpm in a centrifuge (centrifuge 5424; manufactured by Eppendorf, Inc.) to remove the supernatant and give a cell pellet. The concentration of heme or protoporphyrin IX (hereinafter, referred to as “PPIX”) included in this cell pellet was quantified using liquid chromatography-mass spectrometry (LC-MS) (step (D)). A change in the concentration of heme or PPIX by addition of a test compound was examined to be able to evaluate how the test compound affected the heme biosynthesis pathway. In addition, the number of cells collected after the culture was counted to determine viability.
The concentration of heme or PPIX was represented in weight per 10^6 cells (ng/10^6 cells). DHA or SA, which is known to inhibit heme synthesis, caused a decrease in the heme concentration at Day 18 (Day 8 after the start of step (C)) after the start of suspension culture (step (A)) when compared to a solvent control (FIG. 12A). […] A hypothesis that DHA can induce anemia by inhibiting the most downstream ferrochelatase has been proposed (Clark et al. (2018) Birth Defects Research 110: 553-578). […] In addition, DHA or SA decreased the viable cell count and viability of cells included in the cell population (FIGS. 12C and D). In Example 1, the cell population included embryonic erythroblasts at a high percentage.

REL cells = assay: Differentiation culture of REL cells with inducer, β-globin gene family expression by real-time PCR; type: cell-based, rat; conditions: 1 mM HMBA
Protocol: (§1) The percentage of expression of the β-globin gene family expressed in cells of the above cell population was checked by real-time PCR. The floating cell population-containing medium at Day 10, 14, or 18 after the start of suspension culture (step (1)) was centrifuged for 5 min at 1000 rpm in a centrifuge (CF8DL; manufactured by Koki Holdings Co., Ltd.) to remove the supernatant. The resulting cells were washed with PBS (manufactured by Thermo Fisher Scientific, Inc.), centrifuged for 3 min at 7500 rpm in a centrifuge (centrifuge 5424; manufactured by Eppendorf, Inc.), and then subjected to total RNA extraction from the cells using an RNeasy Micro Kit (manufactured by QIAGEN, Inc.). The resulting total RNA was subjected to reverse transcription using SuperScript III (manufactured by Thermo Fisher Scientific, Inc.). Subsequently, the resulting cDNA was used as a template to perform real-time PCR by using TaqMan probes (manufactured by Thermo Fisher Scientific, Inc.) and a TaqMan Fast Advanced Master Mix (manufactured by Thermo Fisher Scientific, Inc.) in a 96-well plate under Fast PCR conditions according to the instruction in the package insert. The TaqMan probes used were human probes designated in Table 2.
(§2) The gene product containing a TaqMan probe target sequence for each member of the β-globin gene family, namely ε-globin, γ-globin, or β-globin, was used to draw a standard curve. Then, the mRNA copy number for each β-globin gene family member expressed was quantified. The value obtained by dividing the copy number for each β-globin gene family member expressed by the total β-globin gene family copy number was shown as the percentage of expression of each β-globin gene family member. The production of embryonic erythroblast-containing cell population and the analysis by real-time PCR were independently triplicated to calculate the average and the standard error.
REL cells, rat erythroleukemia cells, (obtained from Institute of Molecular Genetics and Genetic Engineering (Prof. Popovic Serbia)) were used as other hematopoietic cells to check a change in expression of ε-globin gene. REL cells were cultured and maintained as follows. RPMI medium (Roswell Park Memorial Institute 1640; manufactured by Thermo Fisher Scientific, Inc.) containing […] FBS (manufactured by Corning, Inc.) and 1% penicillin-streptomycin (manufactured by Sigma-Aldrich Co. LLC) (hereinafter, referred to as “REL medium”) was used, and the cells were subjected to suspension culture on a low-adherent 6-cm dish (manufactured by Sumitomo Bakelite Co., Ltd.). The floating cell-containing medium was collected once every 2 days, and centrifuged for 5 min at 1000 rpm in a centrifuge (SCT5BA; manufactured by Koki Holdings Co., Ltd.) to remove the supernatant. The REL cells were suspended in 5 mL of REL medium and seeded at 5×10^5 cells per dish, and cultured under conditions at 37° C. and 5% CO2.
An inducer (hexamethylene bisacetamide: HMBA) was added to REL cells to check a change in expression of ε-globin over time. For differentiation culture of REL cells, the medium used was REL medium containing HMBA (at a final concentration of 1 mM; manufactured by Sigma-Aldrich Co. LLC.). The REL cells were suspended in 5 mL of the above medium and seeded at 5×10^5 cells per low-adherent 6-cm dish (manufactured by Sumitomo Bakelite Co., Ltd.), and then cultured under conditions at 37° C. and 5% CO2. The floating cell-containing medium was collected at Day 0, 2, 4, or 8 after the start of differentiation culture, and centrifuged for 5 min at 1000 rpm in a centrifuge (SCT5BA; manufactured by Koki Holdings Co., Ltd.) to remove the supernatant.
Like the evaluation protocol by real-time PCR in Example 1, the percentage of expression of each β-globin gene family member expressed in cells was determined by real-time PCR. […] Almost all of the β-globin gene family were an adult erythroblast marker β-globin gene under any of the conditions.

[2] = target: T1, aminolevulinic acid dehydrogenase (Homo sapiens, UniProt P13716); conditions: Sassa et al. (1983); cited from earlier work
T1 sequence (P13716 1-330): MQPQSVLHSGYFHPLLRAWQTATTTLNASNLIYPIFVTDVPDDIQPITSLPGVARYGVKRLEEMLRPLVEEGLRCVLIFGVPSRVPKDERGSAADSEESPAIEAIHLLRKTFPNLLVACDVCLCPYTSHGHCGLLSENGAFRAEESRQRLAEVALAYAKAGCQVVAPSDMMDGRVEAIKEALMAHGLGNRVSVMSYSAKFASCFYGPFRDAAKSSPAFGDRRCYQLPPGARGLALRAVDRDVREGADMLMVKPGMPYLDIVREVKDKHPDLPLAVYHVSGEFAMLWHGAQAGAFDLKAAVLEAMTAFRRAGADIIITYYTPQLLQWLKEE

K562 cells [3] = assay: Differentiation culture of K562 cells with inducer, β-globin gene family expression by real-time PCR; type: cell-based, human; conditions: 1 mM sodium butyrate
Protocol: as §1, §2
Human chronic myeloid leukemia-derived cell line K562 cells (obtained from Health Science Research Resources Bank) were used as other hematopoietic cells to check expression of ε-globin. K562 cells were cultured and maintained as follows. RPMI medium (Roswell Park Memorial Institute 1640; manufactured by Thermo Fisher Scientific, Inc.) containing 10% FBS (manufactured by Corning, Inc.) and 1% penicillin-streptomycin (manufactured by Sigma-Aldrich Co. LLC) (hereinafter, referred to as “K562 medium”) was used, and the cells were subjected to suspension culture on a low-adherent 6-cm dish (manufactured by Sumitomo Bakelite Co., Ltd.). The floating cell-containing medium was collected once every 7 days, and centrifuged for 5 min at 1000 rpm in a centrifuge (SCTSBA; manufactured by Koki Holdings Co., Ltd.) to remove the supernatant. The K562 cells were suspended in 5 mL of K562 medium and seeded at 5×10^5 cells per dish, and cultured under conditions at 37° C. and 5% CO2.
It has been known that addition of an inducer (sodium butyrate) causes an increase in the expression of εs-globin in K562 cells. Thus, a change in expression of ε-globin after addition of sodium butyrate was checked over time. For differentiation culture of K562 cells, K562 medium containing 1 mM sodium butyrate (manufactured by Sigma-Aldrich Co. LLC) was used. The cells were suspended in 5 mL of the above medium and seeded at 5×10^5 cells per low-adherent 6-cm dish, and cultured under conditions at 37° C. and 5% CO2. The floating cell-containing medium was collected at Day 0, 2, 4, or 8 after the start of differentiation culture, and centrifuged for 5 min at 1000 rpm in a centrifuge (SCTSBA; manufactured by Koki Holdings Co., Ltd.) to remove the supernatant.
Like the evaluation protocol by real-time PCR in Example 1, the percentage of expression of each β-globin gene family member expressed in cells was determined by real-time PCR. […] About 30% or less of the β-globin gene family were an embryonic erythroblast marker ε-globin gene under any of the conditions.

K562 cells [4] = conditions: known from the art; cited from earlier work
[5] = Day 2 of differentiation culture
[6] = Day 4 of differentiation culture
[7] = Day 8 of differentiation culture

Q: For `C[C@H]1[C@@H](O)O[C@@H]2O[C@@]3(C)CC[C@H]4[C@H](C)CC[C@@H]1[C@@]24OO3` [DHA, dihydroartemisinin], which viable cell count [1] is on record?
A: decreased

Q: And the viability of cells [1]?
A: decreased

Q: Which “Relative expression level of β-Globin (Hbb) in the β-globin gene family” value (REL cells; [5]) does the source give for `CC(=O)NCCCCCCNC(C)=O` [HMBA, hexamethylene bisacetamide] here?
A: 100 ± 0.0%

Q: What about the “Relative expression level of γ-Globin (Hbg1) in the β-globin gene family” value (REL cells; [5]) of the same compound?
A: 0 ± 0.0%

Q: What about the “Relative expression level of ε-Globin (Hbe1) in the β-globin gene family” value (REL cells; [5]) of the same compound?
A: 0 ± 0.0%

Q: And the “Relative expression level of β-Globin (Hbb) in the β-globin gene family” value (REL cells; [6])?
A: 100 ± 0.0%

Q: What about the “Relative expression level of γ-Globin (Hbg1) in the β-globin gene family” value (REL cells; [6]) of the same compound?
A: 0 ± 0.0%

Q: And the “Relative expression level of ε-Globin (Hbe1) in the β-globin gene family” value (REL cells; [6])?
A: 0 ± 0.0%

Q: And the “Relative expression level of β-Globin (Hbb) in the β-globin gene family” value (REL cells; [7])?
A: 99 ± 0.2%

Q: And the “Relative expression level of γ-Globin (Hbg1) in the β-globin gene family” value (REL cells; [7])?
A: 1 ± 0.1%

Q: And the “Relative expression level of ε-Globin (Hbe1) in the β-globin gene family” value (REL cells; [7])?
A: 0 ± 0.0%

Q: Which results are given for `CC(=O)CC(=O)CCC(=O)O` [SA, succinylacetone]?
A: viable cell count [1]: decreased; viability of cells [1]: decreased; heme concentration compared to a solvent control ([1]; LC-MS, ng/10^6 cells, FIG. 12A): decrease; PPIX (protoporphyrin IX) concentration ([1]; LC-MS, ng/10^6 cells, FIG. 12B): did not largely affect; inhibition of aminolevulinic acid dehydrogenase, upstream in the heme biosynthesis pathway [2]: inhibits

Q: For `CCCC(=O)[O-].[Na+]` [sodium butyrate], which “Relative expression level of β-Globin (HBB) in the β-globin gene family” value (K562 cells [3]; [5]) is on record?
A: 0 ± 0.0%

Q: What about the “Relative expression level of γ-Globin (HBG2/1) in the β-globin gene family” value (K562 cells [3]; [5]) of the same compound?
A: 75 ± 1.6%

Q: What about the “Relative expression level of ε-Globin (HBE1) in the β-globin gene family” value (K562 cells [3]; [5]) of the same compound?
A: 25 ± 1.6%

Q: And the “Relative expression level of β-Globin (HBB) in the β-globin gene family” value (K562 cells [3]; [6])?
A: 0 ± 0.0%

Q: What about the “Relative expression level of γ-Globin (HBG2/1) in the β-globin gene family” value (K562 cells [3]; [6]) of the same compound?
A: 73 ± 1.3%

Q: What about the “Relative expression level of ε-Globin (HBE1) in the β-globin gene family” value (K562 cells [3]; [6]) of the same compound?
A: 27 ± 1.3%

Q: What about the “Relative expression level of β-Globin (HBB) in the β-globin gene family” value (K562 cells [3]; [7]) of the same compound?
A: 0 ± 0.0%

Q: And the “Relative expression level of γ-Globin (HBG2/1) in the β-globin gene family” value (K562 cells [3]; [7])?
A: 70 ± 1.9%

Q: What about the “Relative expression level of ε-Globin (HBE1) in the β-globin gene family” value (K562 cells [3]; [7]) of the same compound?
A: 30 ± 1.9%

Q: What about the “expression of ε-globin in K562 cells after addition of inducer” value (K562 cells [4]) of the same compound?
A: increase

Reference: patent US12258583B2, “Embryonic erythroblast-containing cell population and method for producing same, cell culture composition, and compound test method” (SUMITOMO CHEMICAL COMPANY, LIMITED, priority 2018, dated 2025)
